According to patent US20120165319A1, “INHIBITORS OF INTERLEUKIN-1 BETA CONVERTING ENZYME” (VERTEX PHARMACEUTICALS INCORPORATED, priority 1995, published 2012):
Read-outs that look alike come from different tables or passages of the source. Values belong to the molecule of their own block, whether it stands above or below them.

How the values were obtained:
[1] = system: IL-1β production, LPS-challenged mice; test: In vivo acute assay for efficacy as anti-inflammatory agent: LPS-induced IL-1β production in mice; parameters: species or system mouse; conditions: LPS challenged mice, 50 mg/kg; for inhibition at 50 mg/kg: Mus musculus, po, read-out: percent inhibition of IL-1β production; for inhibition at 50 mg/kg / percent inhibition of IL-1β production: compound PO; for Inhibition of IL-1β Production, compound administered 0 hr relative to LPS challenge / Inhibition of IL-1β Production, compound administered +1 hr relative to LPS challenge / Inhibition of IL-1β Production, compound administered −1 hr relative to LPS challenge / Inhibition of IL-1β Production, compound administered −2 hr relative to LPS challenge: PO, * = values obtained in subsequent assays (Table 4)
In short: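 CD1 mice (n=6) were challenged with LPS 20 mg/kg IP and given compound IP in olive oil:DMSO:ethanol (90:5:5) 1 h after LPS, or at the time of challenge for some analogs. Blood was taken 7 h after LPS and serum IL-1β was measured by ELISA. Oral gavage at 50 mg/kg was also tested.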

[2] = system: IL-1β, human whole blood; test: Whole blood assay for IL-1β production; type: cell-based
In short: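 Human whole blood collected on Na2EDTA was treated with serially diluted compound in saline and then stimulated with LPS at 5.0 ng/ml final, for 16-18 h at 30 °C, in duplicate or triplicate. Plasma IL-1β was measured by ELISA at 1:200 dilution.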

[3] = 0 h, administered 0 h relative to time of LPS challenge
[4] = 2 h, administered −2 h relative to time of LPS challenge
[5] = Homo sapiens, Table 17, read-out: Whole human blood IC50
[6] = Table 18, read-out: Whole human blood IC5O
[7] = Homo sapiens, * = values obtained upon reassay, read-out: Whole human blood IC50
[8] = * = values obtained upon reassay, read-out: Whole human blood IC50

Structure (SMILES): O=C1C[C@H](NC(=O)[C@@H]2CCCN3C(=O)CC[C@H](NC(=O)c4ccccc4)C(=O)N23)C(OCCc2ccccc2)O1 (mixture of isomers) [Compound 2100k, [1S,9S(2RS,3S)]9-Benzoylamino-6,10-dioxo-1,2,3,4,7,8,9,10-octahydro-N-(2-phenethyloxy-5-oxotetrahydrofuran-3-yl)-6H-pyridazino[1,2-a][1,2]diazepine-1-carboxamide]
inhibition at 50 mg/kg [1, 3]: 32% | inhibition at 50 mg/kg ([1]; 1 h, administered +1 h relative to time of LPS challenge): 72% | inhibition at 50 mg/kg ([1]; 1 h, administered −1 h relative to time of LPS challenge): 50% | inhibition at 50 mg/kg [1, 4]: 30% | IC50 [2, 5]: 600 nM

Structure (SMILES): CS(=O)(=O)N[C@H]1CCC(=O)N2CCC[C@@H](C(=O)N[C@@H](CC(=O)O)C(=O)COC(=O)c3sccc3Cl)N2C1=O [505 e, [3S(1S,9S)]5-(3-Chlorothien-2-oyloxy)-3-(6,10-dioxo-9-methanesulphonylamino-1,2,3,4,7,8,9,10-octahydro-6H-pyridazino[1,2-a][1,2]diazepine-1-carboxamido)-4-oxopentanoic acid]
IC50 [2, 6]: 1000 nM

Structure (SMILES): O=C(O)C[C@H](NC(=O)[C@@H]1CCCN2C(=O)CC[C@H](NC(=O)CCc3ccccc3)C(=O)N12)C(=O)c1ncc(-c2c(Cl)cccc2Cl)o1 [Compound 137]
IC50 [2, 7]: 14000 nM

Structure (SMILES): O=C1C[C@H](NC(=O)[C@@H]2CCCN3C(=O)CC[C@H](NC(=O)c4ccccc4)C(=O)N23)C(OCc2ccccc2)O1 (stereo partly drawn) [Compound 213e, [1S,9S(2RS,3S)]9-Benzoylamino-6,10-dioxo-1,2,3,4,7,8,9,10-octahydro-N-(2-benzyloxy-5-oxotetrahydrofuran-3-yl)-6H-pyridazino[1,2-a][1,2]-diazepine-1-carboxamide]
Inhibition of IL-1β Production, compound administered 0 hr relative to LPS challenge [1]: 41% | Inhibition of IL-1β Production, compound administered +1 hr relative to LPS challenge [1]: 89% | Inhibition of IL-1β Production, compound administered −1 hr relative to LPS challenge [1]: 48% | Inhibition of IL-1β Production, compound administered −2 hr relative to LPS challenge [1]: 0% | IC50 [2, 8]: 400 nM | IC50 [2, 7]: 600 nM

Structure (SMILES): O=C[C@H](CC(=O)O)NC(=O)[C@@H]1CCCN2C(=O)CC[C@H](NC(=O)c3cc(Cl)c(O)c(Cl)c3)C(=O)N12 [Compound 214k, [3S(1S,9S)]3-(9-(3,5-Dichloro-4-hydroxybenzoyl)amino-6,10-dioxo-1,2,3,4,7,8,9,10-octahydro-6H-pyridazino[1,2-a][1,2]diazepine-1-carboxamido)-4-oxobutanoic acid]
inhibition at 50 mg/kg [1, 3]: 31% | inhibition at 50 mg/kg [1, 4]: 12% | IC50 [2, 5]: 580 nM

Structure (SMILES): CC(=O)Nc1ccc(C(=O)N[C@H]2CCC(=O)N3CCC[C@@H](C(=O)N[C@H](C=O)CC(=O)O)N3C2=O)cc1Cl [Compound 214l, [3S(1S,9S)]3-(9-(3-Chloro-4-acetamidobenzoyl)amino-6,10-dioxo-1,2,3,4,7,8,9,10-octahydro-6H-pyridazino[1,2-a][1,2]diazepine-1-carboxamido)-4-oxobutanoic acid]
inhibition at 50 mg/kg [1, 3]: 54% | inhibition at 50 mg/kg [1, 4]: 0% | IC50 [2, 5]: 1100 nM

Structure (SMILES): COc1c(Cl)cc(C(=O)N[C@H]2CCC(=O)N3CCC[C@@H](C(=O)N[C@H](C=O)CC(=O)O)N3C2=O)cc1Cl [Compound 214m]
inhibition at 50 mg/kg [1, 3]: 17% | inhibition at 50 mg/kg [1, 4]: 0% | IC50 [2, 5]: 2200 nM

Structure (SMILES): Cc1cc(C(=O)N[C@H]2CCC(=O)N3CCC[C@@H](C(=O)N[C@H](C=O)CC(=O)O)N3C2=O)cc(C)c1O [Compound 214w]
percent inhibition of IL-1β production ([1]; administered 0 h relative to time of LPS challenge): 91% | percent inhibition of IL-1β production ([1]; administered −2 h relative to time of LPS challenge): 11% | IC50 ([2]; Table 17, read-out: Whole human blood IC50): 370 nM

Structure (SMILES): O=C(O)C[C@H](NC(=O)[C@@H]1CCCN2C(=O)CC[C@H](NC(=O)c3ccccc3)C(=O)N12)C(=O)CSc1nnnn1-c1ccccc1 [Compound 280, [3S(1S,9S)]3-(9-Benzoylamino-6,10-dioxo-1,2,3,4,7,8,9,10-octahydro-6H-pyridazino[1,2-a][1,2]diazepine-1-carboxamido)-4-oxo-5(1-phenyl-1H-tetrazole-5-thio)pentanoic acid]
IC50 [2, 7]: > 1000 nM

Structure (SMILES): O=C(O)C[C@H](NC(=O)[C@@H]1CCCN2C(=O)CC[C@H](NC(=O)c3ccccc3)C(=O)N12)C(=O)COc1cccnc1 [Compound 283, [3S(1S,9S)]3-[9-Benzoylamino-6,10-dioxo-1,2,3,4,7,8,9,10-octahydro-6H-pyridazino[1,2-a][1,2]diazepine-1-carboxamido]-4-oxo-5-(3-pyridyloxy)pentanoic acid]
IC50 [2, 7]: 450 nM

Structure (SMILES): CS(=O)(=O)N[C@H]1CCC(=O)N2CCC[C@@H](C(=O)N[C@@H](CC(=O)O)C(=O)COC(=O)c3cccc4ccccc34)N2C1=O [Compound 286, [3S(1S,9S)]3-(6,10-Dioxo-9-methanesulphonylamino-1,2,3,4,7,8,9,10-octahydro-6H-pyridazino[1,2-a][1,2]diazepine-1-carboxamido)-5-(1-naphthoyloxy)-4-oxopentanoic acid]
IC50 [2, 6]: 1600 nM

Structure (SMILES): CC(C)(C)OC(=O)C[C@@H](C=O)NC(=O)[C@@H]1CCCN2C(=O)CC[C@H](NC(=O)c3ccccc3)C(=O)N12 [Compound 302, [3S(1S,9S)3-(9-Benzoylamino-6,10-dioxo-1,2,3,4,7,8,9,10-octahydro-6H-pyriazino-[1,2-a][1,2]diazapine-1-carboxamido)-amino]-4-oxobutanoic acid tert-butyl ester]
Inhibition of IL-1β Production, compound administered 0 hr relative to LPS challenge [1]: 21% | Inhibition of IL-1β Production, compound administered +1 hr relative to LPS challenge [1]: 26% | Inhibition of IL-1β Production, compound administered −1 hr relative to LPS challenge [1]: 27% | Inhibition of IL-1β Production, compound administered −2 hr relative to LPS challenge [1]: 0% | IC50 [2, 7]: > 20000 nM

Structure (SMILES): O=C[C@H](CC(=O)O)NC(=O)[C@@H]1CCCN2C(=O)CC[C@H](NC(=O)c3nccc4ccccc34)C(=O)N12 [Compound 412, [3S(1S,9S)]3-[6,10-Dioxo-9-(isoquinolin-1-oylamino)-1,2,3,4,7,8,9,10-octahydro-6H-pyridazino[1,2-a][1,2]diazepine-1-carboxamido]-4-oxobutanoic acid]
IC50 [2, 8]: 1000 nM | IC50 [2, 7]: 700 nM

Structure (SMILES): Cc1nc(C)c(C(=O)N[C@H]2CCC(=O)N3CCC[C@@H](C(=O)N[C@H](C=O)CC(=O)O)N3C2=O)s1 [Compound 423]
IC50 [2, 7]: 1500 nM

Structure (SMILES): O=C[C@H](CC(=O)O)NC(=O)[C@@H]1CCCN2C(=O)CC[C@H](NC(=O)c3cccc(Cl)c3)C(=O)N12 [Compound 455]
IC50 [2, 8]: 2600 nM | IC50 [2, 7]: 2800 nM

Structure (SMILES): CC(C)C(=O)Nc1ccc(C(=O)N[C@H]2CCC(=O)N3CCC[C@@H](C(=O)N[C@H](C=O)CC(=O)O)N3C2=O)cc1 [Compound 484]
IC50 [2, 7]: 5000 nM

Structure (SMILES): CC(=O)N1C[C@H](NC(=O)c2cc(C)c(O)c(C)c2)C(=O)N(CC(=O)N[C@H](C=O)CC(=O)O)c2ccccc21 [Compound 671, (3S)-3-[(3S)-2-Oxo-3-(3,5-dimethyl-4-hydroxybenzoyl)amino-5-acetyl-2,3,4,5-tetrahydro-1H-1,5-benzodiazepine-1-acetylamino]-4-oxo-butyric acid]
IC50 [2, 5]: 2500 nM

Structure (SMILES): O=C[C@H](CC(=O)O)NC(=O)CN1C(=O)[C@@H](NC(=O)c2nccc3ccccc23)CN(C(=O)CO)c2ccccc21 [Compound 696, (3S)-3-[(3S)-2-Oxo-3-(isoquinolin-1-oyl)amino-5-hydroxyacetyl-2,3,4,5-tetrahydro-1H-1,5-benzodiazepine-1-acetylamino]-4-oxo-butyric acid]
IC50 [2, 5]: 2900 nM

Structure (SMILES): O=C[C@H](CC(=O)O)NC(=O)[C@@H]1CCCN2C(=O)CCN(NS(=O)(=O)c3ccccc3)C(=O)N12 [Compound 1027, [3S(4S)]3-(6,10-Dioxo-1,2,3,4,7,8,9,10-octahydro-7-phenylsulphonylamino-6H-pyridazino[1,2-a][1,2,4]triazepine-4-carboxamido)-4-oxobutanoic acid]
IC50 [2, 7]: > 20000 nM

Structure (SMILES): O=C[C@H](CC(=O)O)NC(=O)[C@@H]1CCCN2C(=O)CCN(NC(=O)c3cc4ccccc4s3)C(=O)N12 [Compound 1053, [3S(4S)]3-[7-(Benzo[b]thiophene-2-carbonyl)amino-6,10-dioxo-1,2,3,4,7,8,9,10-octahydro-6H-pyridazino[1,2-a][1,2,4]triazepine-4-carboxamido]-4-oxobutanoic acid]
IC50 [2, 5]: > 20000 nM

Structure (SMILES): COCC(=O)N1C[C@H](NC(=O)c2cccc3ccccc23)C(=O)N(CC(=O)N[C@H](C=O)CC(=O)O)c2ccccc21 [Compound 2201, (3S)-3-[(3S)-2-oxo-3-(1-naphthoyl)amino-5-methoxyacetyl-2,3,4,5-tetrahydro-1H-1,5-benzodiazepine-1-acetylamino]4-oxo-butyric acid]
IC50 [2, 7]: 3500 nM

Other lines, results leading:

IC50 [2, 7]: > 10000 nM
Structure (SMILES): COCC(=O)N1C[C@H](NC(=O)c2ccccc2)C(=O)N(CC(=O)N[C@H](C=O)CC(=O)O)c2ccccc21 [Compound 605e, (3S)-3-[(3S)-2-Oxo-3-benzoylamino-5-methoxyacetyl-2,3,4,5-tetrahydro-1H-1,5-benzodiazepin-1-acetylamino]-4-oxo-butyric acid]

IC50 [2, 5]: 1200 nM
Structure (SMILES): Cc1cc(C(=O)N[C@H]2CN(C(=O)CO)c3ccccc3N(CC(=O)N[C@H](C=O)CC(=O)O)C2=O)cc(C)c1O [Compound 691a, (3S)-3-[(3S)-2-Oxo-3-(3,5-dimethyl-4-hydroxybenzoyl)amino-5-hydroxyacetyl-2,3,4,5-tetrahydro-1H-1,5-benzodiazepine-1-acetylamino]-4-oxo-butyric acid]
